Measured values reported in PMC9727700 (Redox Biology, 2022).

Experiments:
[1] = system: SH-SY5Y cells; assay: Rotenone-treated SH-SY5Y cells: mitochondrial membrane potential; format: cell-based, human; conditions: rotenone 1 μM; HY08 0.3 μM; NAC 1 μM
[2] = system: SH-SY5Y cells; assay: Intracellular 4-HNE levels in fatty acid-treated SH-SY5Y cells; format: cell-based, human; conditions: 50 μM

| SMILES | rotenone-induced mitochondrial membrane potential loss and cell death [1] | intracellular 4-HNE production [2] |
| --- | --- | --- |
| CC(=O)N[C@@H](CS)C(=O)O [NAC, N-Acetyl cysteine] | exerted inhibitory effects |  |
| CCCCC/C=C\C/C=C\C/C=C\C/C=C\CCCC(=O)O [AA, arachidonic acid] |  | significantly enhanced |
